Numbers after ± are expanded uncertainties.
Columns and labels:
[1] = 101.33 kPa, Liquid; for speed of sound: Pulse-echo method; for mass density: Vibrating tube method
[2] = molar heat capacity at constant pressure; settings: 100 kPa, Liquid
[3] = molar heat capacity at constant pressure; xn = mol fraction of the nth substance listed; settings: 100 kPa, Liquid

Cc1ccccc1Cl [2-chlorotoluene]
Settings	mass density, 293.15 K [kg/m3]	mass density, 298.15 K [kg/m3]	mass density, 303.15 K [kg/m3]	molar heat capacity at constant pressure, 293.15 K [J/K/mol]	molar heat capacity at constant pressure, 298.15 K [J/K/mol]	molar heat capacity at constant pressure, 303.15 K [J/K/mol]	speed of sound, 293.15 K [m/s]	speed of sound, 298.15 K [m/s]	speed of sound, 303.15 K [m/s]
[1]	1082.22 ± 1	1077.34 ± 1	1072.46 ± 0.99	–	–	–	1316.8 ± 2.1	1298.7 ± 2.1	1280.7 ± 2.1
[2]	–	–	–	176.43 ± 1.6	178.21 ± 1.6	180.01 ± 1.7	–	–	–

O=C1CCCN1 [2-pyrrolidinone]
Settings	mass density, 293.15 K [kg/m3]	mass density, 298.15 K [kg/m3]	mass density, 303.15 K [kg/m3]	molar heat capacity at constant pressure, 293.15 K [J/K/mol]	molar heat capacity at constant pressure, 298.15 K [J/K/mol]	molar heat capacity at constant pressure, 303.15 K [J/K/mol]	speed of sound, 293.15 K [m/s]	speed of sound, 298.15 K [m/s]	speed of sound, 303.15 K [m/s]
[1]	1111.28 ± 0.32	1107.15 ± 0.32	1103.06 ± 0.31	–	–	–	1651.4 ± 1.3	1635 ± 1.3	1618.7 ± 1.3
[2]	–	–	–	168.36 ± 1.6	169.55 ± 1.6	171.18 ± 1.6	–	–	–

Cc1cccc(Cl)c1 [3-chlorotoluene]
Settings	mass density, 293.15 K [kg/m3]	mass density, 298.15 K [kg/m3]	mass density, 303.15 K [kg/m3]	molar heat capacity at constant pressure, 293.15 K [J/K/mol]	molar heat capacity at constant pressure, 298.15 K [J/K/mol]	molar heat capacity at constant pressure, 303.15 K [J/K/mol]	speed of sound, 293.15 K [m/s]	speed of sound, 298.15 K [m/s]	speed of sound, 303.15 K [m/s]
[1]	1072.12 ± 0.99	1067.23 ± 0.98	1062.33 ± 0.97	–	–	–	1313.6 ± 2.1	1295.5 ± 2.1	1277.3 ± 2.1
[2]	–	–	–	175.21 ± 1.6	176.46 ± 1.6	177.67 ± 1.6	–	–	–

Cc1ccc(Cl)cc1 [4-chlorotoluene]
Settings	mass density, 293.15 K [kg/m3]	mass density, 298.15 K [kg/m3]	mass density, 303.15 K [kg/m3]	molar heat capacity at constant pressure, 293.15 K [J/K/mol]	molar heat capacity at constant pressure, 298.15 K [J/K/mol]	molar heat capacity at constant pressure, 303.15 K [J/K/mol]	speed of sound, 293.15 K [m/s]	speed of sound, 298.15 K [m/s]	speed of sound, 303.15 K [m/s]
[1]	1069.27 ± 0.29	1064.37 ± 0.28	1059.46 ± 0.28	–	–	–	1306.5 ± 1.2	1288.4 ± 1.2	1270.3 ± 1.2
[2]	–	–	–	175.66 ± 1.6	177.95 ± 1.6	180.37 ± 1.7	–	–	–

CN1CCCC1=O [N-methylpyrrolidone]
Settings	mass density, 293.15 K [kg/m3]	mass density, 298.15 K [kg/m3]	mass density, 303.15 K [kg/m3]	molar heat capacity at constant pressure, 293.15 K [J/K/mol]	molar heat capacity at constant pressure, 298.15 K [J/K/mol]	molar heat capacity at constant pressure, 303.15 K [J/K/mol]	speed of sound, 293.15 K [m/s]	speed of sound, 298.15 K [m/s]	speed of sound, 303.15 K [m/s]
[1]	1033.28 ± 0.26	1028.26 ± 0.25	1023.49 ± 0.25	–	–	–	1565.6 ± 1.3	1546.1 ± 1.2	1527.3 ± 1.2
[2]	–	–	–	165.44 ± 1.5	166.22 ± 1.5	166.92 ± 1.6	–	–	–

Cc1ccccc1Cl [2-chlorotoluene] + CN1CCCC1=O
molar heat capacity at constant pressure [J/K/mol], [3]
Settings	293.15 K	298.15 K	303.15 K
x2 = 0	176.43 ± 1.6	178.21 ± 1.6	180.01 ± 1.7
x2 = 0.0766	177.61 ± 1.6	179.54 ± 1.7	181.65 ± 1.7
x2 = 0.1176	178.19 ± 1.6	180.12 ± 1.7	182.31 ± 1.7
x2 = 0.1545	178.64 ± 1.7	180.7 ± 1.7	182.82 ± 1.7
x2 = 0.1932	179.13 ± 1.7	181.09 ± 1.7	183.22 ± 1.7
x2 = 0.2387	179.69 ± 1.7	181.63 ± 1.7	183.63 ± 1.7
x2 = 0.2768	180.04 ± 1.7	181.98 ± 1.7	183.93 ± 1.7
x2 = 0.3121	180.38 ± 1.7	182.21 ± 1.7	184.15 ± 1.7
x2 = 0.3543	180.68 ± 1.7	182.53 ± 1.7	184.34 ± 1.7
x2 = 0.3871	180.8 ± 1.7	182.64 ± 1.7	184.39 ± 1.7
x2 = 0.4267	180.94 ± 1.7	182.73 ± 1.7	184.44 ± 1.7
x2 = 0.4653	180.97 ± 1.7	182.78 ± 1.7	184.48 ± 1.7
x2 = 0.5065	180.95 ± 1.7	182.72 ± 1.7	184.39 ± 1.7
x2 = 0.5412	180.74 ± 1.7	182.59 ± 1.7	184.2 ± 1.7
x2 = 0.5849	180.46 ± 1.7	182.25 ± 1.7	183.84 ± 1.7
x2 = 0.6219	180.05 ± 1.7	181.77 ± 1.7	183.46 ± 1.7
x2 = 0.6618	179.44 ± 1.7	181.22 ± 1.7	182.89 ± 1.7
x2 = 0.7064	178.51 ± 1.7	180.31 ± 1.7	182.03 ± 1.7
x2 = 0.7417	177.61 ± 1.6	179.4 ± 1.7	181.15 ± 1.7
x2 = 0.7817	176.49 ± 1.6	178.16 ± 1.6	179.97 ± 1.7
x2 = 0.8213	175.04 ± 1.6	176.75 ± 1.6	178.4 ± 1.6
x2 = 0.8543	173.73 ± 1.6	175.32 ± 1.6	176.97 ± 1.6
x2 = 0.8886	172.09 ± 1.6	173.57 ± 1.6	175.14 ± 1.6
x2 = 0.9133	170.81 ± 1.6	172.18 ± 1.6	173.6 ± 1.6
x2 = 0.9476	168.91 ± 1.6	170.02 ± 1.6	171.22 ± 1.6

Cc1ccc(Cl)cc1 [4-chlorotoluene] + O=C1CCCN1
molar heat capacity at constant pressure [J/K/mol], [3]
Settings	293.15 K	298.15 K	303.15 K
x2 = 0	175.66 ± 1.6	177.95 ± 1.6	180.37 ± 1.7
x2 = 0.0386	175.99 ± 1.6	178.08 ± 1.6	180.47 ± 1.7
x2 = 0.0724	176.3 ± 1.6	178.23 ± 1.6	180.58 ± 1.7
x2 = 0.1123	176.65 ± 1.6	178.52 ± 1.7	180.66 ± 1.7
x2 = 0.1526	177.03 ± 1.6	178.78 ± 1.7	180.84 ± 1.7
x2 = 0.1926	177.35 ± 1.6	179.04 ± 1.7	180.93 ± 1.7
x2 = 0.2317	177.67 ± 1.6	179.22 ± 1.7	181.06 ± 1.7
x2 = 0.2725	177.98 ± 1.6	179.48 ± 1.7	181.12 ± 1.7
x2 = 0.3126	178.18 ± 1.6	179.64 ± 1.7	181.1 ± 1.7
x2 = 0.3516	178.38 ± 1.6	179.7 ± 1.7	181.14 ± 1.7
x2 = 0.3916	178.43 ± 1.6	179.77 ± 1.7	181.06 ± 1.7
x2 = 0.4332	178.43 ± 1.6	179.72 ± 1.7	180.88 ± 1.7
x2 = 0.4753	178.35 ± 1.6	179.67 ± 1.7	180.61 ± 1.7
x2 = 0.5121	178.24 ± 1.6	179.47 ± 1.7	180.38 ± 1.7
x2 = 0.5512	177.97 ± 1.6	179.17 ± 1.7	180.03 ± 1.7
x2 = 0.5925	177.61 ± 1.6	178.79 ± 1.7	179.53 ± 1.7
x2 = 0.6325	177.15 ± 1.6	178.25 ± 1.6	179.05 ± 1.7
x2 = 0.6715	176.58 ± 1.6	177.74 ± 1.6	178.48 ± 1.7
x2 = 0.7122	175.92 ± 1.6	176.99 ± 1.6	177.81 ± 1.6
x2 = 0.7534	175.18 ± 1.6	176.18 ± 1.6	177 ± 1.6
x2 = 0.7921	174.31 ± 1.6	175.32 ± 1.6	176.22 ± 1.6
x2 = 0.8324	173.32 ± 1.6	174.4 ± 1.6	175.34 ± 1.6
x2 = 0.8731	172.28 ± 1.6	173.34 ± 1.6	174.46 ± 1.6
x2 = 0.9123	171.14 ± 1.6	172.21 ± 1.6	173.5 ± 1.6
x2 = 0.9543	169.86 ± 1.6	171 ± 1.6	172.43 ± 1.6

Source: the NIST ThermoML archive (doi:10.1021/je400408w)
